What was measured:
[1] = molecular target: Angiotensin-converting enzyme (Homo sapiens, UniProt P12821+Q9BYF1); assay: Inhibition of Angiotensin I converting enzyme; format: protein assay
Neprilysin = Neprilysin (Homo sapiens, UniProt P08473); assay: Inhibition of neutral endopeptidase
Sequence of Neprilysin (P08473 whole entry): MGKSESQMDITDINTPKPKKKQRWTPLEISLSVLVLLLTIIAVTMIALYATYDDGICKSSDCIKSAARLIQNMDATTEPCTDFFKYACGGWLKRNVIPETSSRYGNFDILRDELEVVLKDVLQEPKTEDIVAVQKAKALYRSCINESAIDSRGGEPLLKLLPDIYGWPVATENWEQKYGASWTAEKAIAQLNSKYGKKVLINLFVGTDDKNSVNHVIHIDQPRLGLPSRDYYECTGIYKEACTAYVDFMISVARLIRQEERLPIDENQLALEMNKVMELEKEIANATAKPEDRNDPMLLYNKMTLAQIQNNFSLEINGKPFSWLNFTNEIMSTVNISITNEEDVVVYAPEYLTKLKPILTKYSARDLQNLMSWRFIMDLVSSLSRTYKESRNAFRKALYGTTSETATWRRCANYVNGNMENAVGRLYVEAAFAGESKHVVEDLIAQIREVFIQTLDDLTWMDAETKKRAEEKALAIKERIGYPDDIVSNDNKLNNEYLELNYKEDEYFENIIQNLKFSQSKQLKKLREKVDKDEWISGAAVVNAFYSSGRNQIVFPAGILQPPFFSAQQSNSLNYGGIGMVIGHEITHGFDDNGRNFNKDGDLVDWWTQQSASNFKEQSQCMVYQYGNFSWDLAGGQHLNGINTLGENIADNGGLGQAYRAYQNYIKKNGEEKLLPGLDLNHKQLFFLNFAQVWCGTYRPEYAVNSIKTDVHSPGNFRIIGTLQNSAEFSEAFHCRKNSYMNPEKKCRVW

Compound	IC50 [1] [nM]	IC50 (Neprilysin) [nM]
O=C(NC1CCc2cccc3c2N(C1=O)[C@H](C(=O)O)C3)[C@H](S)Cc1ccccc1 (some centres not stated)	283	83
O=C(O)[C@@H]1Cc2cccc3c2N1C(=O)C(NC(=O)C1(S)Cc2ccccc2C1)CC3 (some centres not stated)	> 1000	505
O=C(N[C@H]1CCc2cccc3c2N(C1=O)[C@H](C(=O)O)C3)[C@@H](S)Cc1ccccc1	40	48
O=C(NC1CCc2cccc3c2N(C1=O)[C@H](C(=O)O)C3)[C@@H](S)Cc1ccc(-c2ccccc2)cc1 (some centres not stated)	89	> 1000
O=C(N[C@@H]1CCc2cccc3c2N(C1=O)[C@H](C(=O)O)C3)[C@@H](S)Cc1ccccc1	62	> 1000
O=C(N[C@H]1CCc2cccc3c2N(C1=O)[C@H](C(=O)O)C3)C(CS)Cc1ccc(-c2ccccc2)cc1 (stereo in doubt; 4m (S))	77	15
O=C(N[C@H]1CCc2cccc3c2N(C1=O)[C@H](C(=O)O)C3)C(CS)Cc1ccc(-c2ccccc2)cc1 (stereo in doubt; 4n (S))	1120	12

Next, values leading:

IC50 [1] [nM]	IC50 (Neprilysin) [nM]	Compound
< 100	> 1000	O=C(NC1CCc2cccc3c2N(C1=O)[C@H](C(=O)O)C3)[C@@H](S)C1CCCCC1 (some centres not stated)
30	940	CC(C)[C@H](S)C(=O)NC1CCc2cccc3c2N(C1=O)[C@H](C(=O)O)C3 (some centres not stated)
–	> 1000	O=C(CS)NC1CCc2cccc3c2N(C1=O)[C@H](C(=O)O)C3 (some centres not stated)
165	> 1000	C[C@H](S)C(=O)NC1CCc2cccc3c2N(C1=O)[C@H](C(=O)O)C3 (some centres not stated)
> 1000	> 1000	CC(C)(S)C(=O)NC1CCc2cccc3c2N(C1=O)[C@H](C(=O)O)C3 (some centres not stated)
253	> 1000	O=C(O)[C@@H]1Cc2cccc3c2N1C(=O)C(NC(=O)C1(S)CCCC1)CC3 (some centres not stated)
41	> 1000	CC[C@@H](C)[C@H](S)C(=O)NC1CCc2cccc3c2N(C1=O)[C@H](C(=O)O)C3 (some centres not stated)

From ChEMBL document CHEMBL1128940, “Dual inhibition of angiotensin-converting enzyme and neutral endopeptidase by tricyclic benzazepinone thiols” (Bioorg Med Chem Lett, 1996)
